Patent publication US6204294A, “IL-8 receptor antagonists” (SmithKline Beecham Corporation, priority 1999, dated 2001)

Tested on: recombinant human IL-8 type β receptor (IL-8Rβ, Type II, permissive receptor)
Assay: Receptor binding assay, permissive model (IL-8b), [125I]IL-8 on CHO membranes
Details: recombinant IL-8Rβ CHO membranes; compound without an ionizable proton in the 2-position
Excerpt: [^125 I]IL-8 (human recombinant) was obtained from Amersham Corp., Arlington Heights, Ill., with specific activity 2000 Ci/mmol. Gro-α was obtained from NEN- New England Nuclear. All other chemicals were of analytical grade. High levels of recombinant human IL-8 type α and β receptors were individually expressed in Chinese hamster ovary cells as described previously (Holmes, et al., Science, 1991, 253, 1278). The Chinese hamster ovary membranes were homogenized according to a previously described protocol (Haour, et al., J Biol Chem., 249 pp 2195-2205 (1974)). Except that the homogenization buffer was changed to 10mM Tris-HCL, 1mM MgS04, 0.5mM EDTA (ethylene-diaminetetra-acetic acid), 1mMPMSF (α-toluenesulphonyl fluoride), 0.5 mg/L Leupeptin, pH 7.5. Membrane protein concentration was determined using Pierce Co. micro-assay kit using bovine serum albumin as a standard. All assays were performed in a 96-well micro plate format. Each reaction mixture contained ^125 I IL-8 (0.25 nM) or ^125 I Gro-α and 0.5 μg/mL of IL-8Rα or 1.0 μg/mL of IL-8Rβ membranes in 20 mM Bis-Trispropane and 0.4 mM Tris HCl buffers, pH 8.0, containing 1.2 mM MgSO4, 0.1 mM EDTA, 25 mM NaCl and 0.03% CHAPS. […] The filter was then dried and counted on the Betaplate liquid scintillation counter. […]

activity in the permissive model (IL-8b) IL-8 receptor inhibition assay, result in words: inactive
SMILES: C=CCOc1cc(C#N)ccc1NC(=NC#N)Nc1ccccc1Br [N-(2-Allyloxy-4-cyano-phenyl)-N'-(2-bromophenyl)-N"-cyanoguanidine]
